Measurements taken from patent publication US20110166121A1 (LG LIFE SCIENCES LTD., priority 2008, published 2011).

Assays:
[1] = test system: Human platelet aggregation caused by ADP; assay: Inhibition of ADP-induced platelet aggregation (Mimic-human PRP); assay type: cell-based; conditions: 20 μM ADP, human platelet concentrate diluted with PPP, absorption at 595 nm
Method in brief: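 Human PRP diluted with PPP to 3–4×10^8 platelets/mL was preincubated 20 min at room temperature with compound (0.01–30 μM, DMSO), then stimulated with 20 μM ADP. Aggregation read as A595 increase at 3 min versus 0 and 20 μM ADP controls; Ki from sigmoidal non-linear regression.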

Human P2Y12 receptor = target: T1, Human P2Y12 receptor (Homo sapiens, UniProt Q9H244); assay: Human P2Y12 receptor cell membrane binding assay with [3H] 2-Mes-ADP; conditions: 1 nM [3H] 2-Mes-ADP, membranes of HEK cells expressing P2Y12 receptor; read-out: Binding activity (IC50)
T1 construct: expressed in transfected cells; host or cells: HEK cells
T1 sequence (Q9H244 whole entry): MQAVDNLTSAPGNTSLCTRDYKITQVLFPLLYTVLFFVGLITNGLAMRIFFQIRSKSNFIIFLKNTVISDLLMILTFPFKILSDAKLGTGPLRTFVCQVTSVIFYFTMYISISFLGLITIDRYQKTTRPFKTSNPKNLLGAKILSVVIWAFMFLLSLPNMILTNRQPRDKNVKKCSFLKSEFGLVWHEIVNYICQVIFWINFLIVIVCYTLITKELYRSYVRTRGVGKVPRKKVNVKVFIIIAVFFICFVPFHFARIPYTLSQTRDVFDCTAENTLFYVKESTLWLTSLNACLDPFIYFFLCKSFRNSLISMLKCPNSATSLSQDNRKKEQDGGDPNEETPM
Method in brief: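 Membranes from HEK cells expressing human P2Y12 were incubated with compound and 1 nM [3H]2-MeS-ADP for 1 h at room temperature. Bound radioactivity was collected by GF/B filtration.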

Q: Which results are given for `CCCc1cc2c(N3CCn4c(nnc4C(F)(F)F)C3)nc(N3CC[C@H](NC(=O)c4ccco4)C3)nc2s1` [Example 1-112, Furan-2-carboxylic Acid {(S)-1-[6-propyl-4-(3-trifluoromethyl-5,6-dihydro-8H-[1,2,4]triazolo[4,3-a]pyrazin-7-yl)-thieno[2,3-d]pyrimidin-2-yl]-pyrrolidin-3-yl}-amide]?
A: Ki [1]: 260 nM; IC50 (Human P2Y12 receptor): 50 nM

Q: Which Ki [1] does the source give for `CCCc1cc2c(N3CCn4c(nnc4C(F)(F)F)C3)nc(OCc3ccccc3)nc2s1` [Example 3-16, 7-(2-Benzyloxy-6-propyl-thieno[2,3-d]pyrimidin-4-yl)-3-trifluoromethyl-5,6,7,8-tetrahydro-[1,2,4]triazolo[4,3-a]pyrazine] here?
A: 27600 nM

Q: And the IC50 (Human P2Y12 receptor)?
A: 39 nM

Q: Which results are given for `CCc1cc2c(N3CCn4c(nnc4C(F)(F)F)C3)nc(OCCO)nc2s1` [Example 3-50, 2-[6-Ethyl-4-(3-trifluoromethyl-5,6-dihydro-8H-[1,2,4]triazolo[4,3-a]pyrazin-7-yl)-thieno[2,3-d]pyrimidin-2-yloxy]-ethanol]?
A: Ki [1]: 141 nM; IC50 (Human P2Y12 receptor): 596 nM

Q: Which Ki [1] does the source give for `CCCc1cc2c(N3CCn4c(nnc4C(F)(F)F)C3)nc(N3CCC[C@H]3C(=O)OC)nc2s1` [Example 1-49, (S)-1-[6-Propyl-4-(3-trifluoromethyl-5,6-dihydro-8H-[1,2,4]triazolo[4,3-a]pyrazin-7-yl)-thieno[2,3-d]pyrimidin-2-yl]-pyrrolidine-2-carboxylic acid methyl ester] here?
A: 230 nM

Q: What about the IC50 (Human P2Y12 receptor) of the same molecule?
A: 98 nM

Q: `CCCc1cc2c(N3CCn4c(nnc4C(F)(F)F)C3)nc(N3CC[C@H](C(=O)NO)C3)nc2s1` [Example 1-89, (S)-1-[6-Propyl-4-(3-trifluoromethyl-5,6-dihydro-8H-[1,2,4]triazolo[4,3-a]pyrazin-7-yl)-thieno[2,3-d]pyrimidin-2-yl]-pyrrolidine-3-carboxylic acid hydroxyamide] was tested. Which Ki [1] did it give?
A: 12 nM

Q: And the IC50 (Human P2Y12 receptor)?
A: 55 nM

Q: Which Ki [1] does the source give for `CCCc1nc2c(N3CCn4c(nnc4C(F)(F)F)C3)nc(N3CCC[C@H](C(=O)OCC)C3)nc2s1` [Example 5-6, (S)-1-[2-Propyl-7-(3-trifluoromethyl-5,6-dihydro-8H-[1,2,4]triazolo[4,3-a]pyrazin-7-yl)-thiazolo[5,4-d]pyrimidin-5-yl]-piperidine-3-carboxylic acid ethyl ester] here?
A: > 4000 nM

Q: What about the IC50 (Human P2Y12 receptor) of the same molecule?
A: 630 nM

Q: Which results are given for `CCCc1cc2c(N3CCn4c(nnc4C(F)(F)F)C3)nc(Cc3nc(C(=O)O)cs3)nc2s1` [Example 4-58, 2-[6-Propyl-4-(3-trifluoromethyl-5,6-dihydro-8H-[1,2,4]triazolo[4,3-a]pyrazin-7-yl)-thieno[2,3-d]pyrimidin-2-ylmethyl]-thiazole-4-carboxylic acid]?
A: Ki [1]: 243 nM; IC50 (Human P2Y12 receptor): 300 nM

Q: Which Ki [1] does the source give for `CCCc1cc2c(N3CCn4c(nnc4C(F)(F)F)C3)nc(CC(N)=O)nc2s1` [Example 4-55, 2-[6-Propyl-4-(3-trifluoromethyl-5,6-dihydro-8H-[1,2,4]triazolo[4,3-a]pyrazin-7-yl)-thieno[2,3-d]pyrimidin-2-yl]-acetamide] here?
A: 4.2 nM

Q: And the IC50 (Human P2Y12 receptor)?
A: 174 nM

Q: For `CCCc1cc2c(N3CCn4c(nnc4C(F)(F)F)C3)nc(N3CCCC(C(=O)OC(C)C)C3)nc2s1` (centres unmarked) [Example 1-47, 1-[6-Propyl-4-(3-trifluoromethyl-5,6-dihydro-8H-[1,2,4]triazolo[4,3-a]pyrazin-7-yl)-thieno[2,3-d]pyrimidin-2-yl]-piperidine-3-carboxylic acid isopropyl ester], which Ki [1] is on record?
A: 1900 nM

Q: And the IC50 (Human P2Y12 receptor)?
A: 280 nM

Q: With `CCCc1cc2c(N3CCn4c(nnc4C(F)(F)F)C3)nc(N3CC[C@H](NC(=O)CCO)C3)nc2s1` [Example 1-109, 3-Hydroxy-N-{(S)-1-[6-propyl-4-(3-trifluoromethyl-5,6-dihydro-8H-[1,2,4]triazolo[4,3-a]pyrazin-7-yl)-thieno[2,3-d]pyrimidin-2-yl]-pyrrolidin-3-yl}-propionamide] as the molecule, how does the Ki [1] read?
A: 26 nM

Q: What about the IC50 (Human P2Y12 receptor) of the same molecule?
A: 80 nM

Q: Which results are given for `CCCc1cc2c(N3CCn4c(nnc4C(F)(F)F)C3)nc(SCc3ccccc3)nc2s1` [Example 3-51, 7-(2-Benzylsulfanyl-6-propyl-thieno[2,3-d]pyrimidin-4-yl)-3-trifluoromethyl-5,6,7,8-tetrahydro-[1,2,4]triazolo[4,3-a]pyrazine]?
A: Ki [1]: 1170 nM; IC50 (Human P2Y12 receptor): 700 nM

Q: What does the source list for `CCCc1cc2c(N3CCn4c(nnc4C(F)(F)F)C3)nc(N3CCn4cc(C(F)(F)F)nc4C3)nc2s1` [Example 1-78, 7-[6-Propyl-2-(2-trifluoromethyl-5,6-dihydro-8H-imidazo[1,2-a]pyrazin-7-)-thieno[2,3-d]pyrimidin-4-yl]-3-trifluoromethyl-5,6,7,8-tetrahydro-[1,2,4]triazolo[4,3-a]pyrazine]?
A: Ki [1]: 200 nM; IC50 (Human P2Y12 receptor): 110 nM

Q: For `O=C1CN(c2nc(N3CCn4c(nnc4C(F)(F)F)C3)c3cc(CCC(F)(F)F)sc3n2)CCN1` [Example 2-19, 4-[4-(3-Trifluoromethyl-5,6-dihydro-8H-[1,2,4]triazolo[4,3-a]pyrazin-7-yl)-6-(3,3,3-trifluoro-propyl)-thieno[2,3-d]pyrimidin-2-yl]-piperazin-2-one], which Ki [1] is on record?
A: 550 nM

Q: What about the IC50 (Human P2Y12 receptor) of the same molecule?
A: 362 nM

Q: Which results are given for `CCCc1cc2c(N3CCn4c(nnc4C(F)(F)F)C3)nc(N3CC(=O)C(N)C3)nc2s1` (centres unmarked) [Example 1-115, 4-Amino-1-[6-propyl-4-(3-trifluoromethyl-5,6-dihydro-8H-[1,2,4]triazolo[4,3-a]pyrazin-7-yl)-thieno[2,3-d]pyrimidin-2-yl]-pyrrolidin-3-one]?
A: Ki [1]: 16 nM; IC50 (Human P2Y12 receptor): 110 nM

Q: How did the Ki [1] turn out when `O[C@@H]1CCN(c2nc(N3CCn4c(nnc4C(F)(F)F)C3)c3cc(CCC(F)(F)F)sc3n2)C1` [Example 2-20, (R)-1-[4-(3-Trifluoromethyl-5,6-dihydro-8H-[1,2,4]triazolo[4,3-a]pyrazin-7-yl)-6-(3,3,3-trifluoro-propyl)-thieno[2,3-d]pyrimidin-2-yl]-pyrrolidin-3-ol] was run?
A: 40 nM

Q: And the IC50 (Human P2Y12 receptor)?
A: 260 nM

Q: Which results are given for `CCc1cc2c(N3CCn4c(nnc4C(F)(F)F)C3)nc(NCCO)nc2s1` [Example 2-5, 2-[6-Ethyl-4-(3-trifluoromethyl-5,6-dihydro-8H-[1,2,4]triazolo[4,3-a]pyrazin-7-yl)-thieno[2,3-d]pyrimidin-2-ylamino]-ethanol]?
A: Ki [1]: 857 nM; IC50 (Human P2Y12 receptor): 710 nM

Q: For `CCCc1cc2c(N3CCn4c(nnc4C(F)(F)F)C3)nc(-c3nc(CCOC)no3)nc2s1` [Example 4-29, 7-{2-[3-(2-Methoxy-ethyl)-[1,2,4]oxadiazol-5-yl]-6-propyl-thieno[2,3-d]pyrimidin-4-yl}-3-trifluoromethyl-5,6,7,8-tetrahydro-[1,2,4]triazolo[4,3-a]pyrazine], which Ki [1] is on record?
A: 480 nM

Q: What about the IC50 (Human P2Y12 receptor) of the same molecule?
A: 330 nM

Q: For `CCCc1cc2c(N3CCn4c(nnc4C(F)(F)F)C3)nc(C(N)=O)nc2s1` [Example 4-3, 6-Propyl-4-(3-trifluoromethyl-5,6-dihydro-8H-[1,2,4]triazolo[4,3-a]pyrazin-7-yl)-thieno[2,3-d]pyrimidine-2-carboxylic acid amide], which Ki [1] is on record?
A: 120 nM

Q: What about the IC50 (Human P2Y12 receptor) of the same molecule?
A: 630 nM

Q: With `CCCc1cc2c(N3CCn4c(nnc4C(F)(F)F)C3)nc(CC(=O)OCC)nc2s1` [Example 4-53, [6-Propyl-4-(3-trifluoromethyl-5,6-dihydro-8H-[1,2,4]triazolo[4,3-a]pyrazin-7-yl)thieno[2,3-d]pyrimidin-2-yl]acetic acid ethyl ester] as the molecule, how does the Ki [1] read?
A: 5250 nM

Q: And the IC50 (Human P2Y12 receptor)?
A: 300 nM

Q: What does the source list for `CCCc1cc2c(N3CCn4c(nnc4C(F)(F)F)C3)nc(N3CC[C@H](C(=O)OCOC(=O)C(C)(C)C)C3)nc2s1` [Example 1-59, (S)-1-[6-Propyl-4-(3-trifluoromethyl-5,6-dihydro-8H-[1,2,4]triazolo[4,3-a]pyrazin-7-yl)-thieno[2,3-d]pyrimidin-2-yl]-pyrrolidine-3-carboxylic acid 2,2-dimethyl-propionyloxymethyl ester]?
A: Ki [1]: 1450 nM; IC50 (Human P2Y12 receptor): 440 nM

Q: Which Ki [1] does the source give for `CCCc1cc2c(N3CCn4c(nnc4C(F)(F)F)C3)nc(N3CCN(S(=O)(=O)CC)CC3)nc2s1` [Example 1-8, 7-[2-(4-Ethanesulfonyl-piperazin-1-yl)-6-propyl-thieno[2,3-d]pyrimidin-4-yl]-3-trifluoromethyl-5,6,7,8-tetrahydro-[1,2,4]triazolo[4,3-a]pyrazine] here?
A: 300 nM

Q: And the IC50 (Human P2Y12 receptor)?
A: 56 nM

Q: Which results are given for `CCCc1cc2c(N3CCn4c(nnc4C(F)(F)F)C3)nc(C(=O)NCCC#N)nc2s1` [Example 4-11, 6-Propyl-4-(3-trifluoromethyl-5,6-dihydro-8H-[1,2,4]triazolo[4,3-a]pyrazin-7-yl)thieno[2,3-d]pyrimidine-2-carboxylic acid (2-cyanoethyl)amide]?
A: Ki [1]: 600 nM; IC50 (Human P2Y12 receptor): 660 nM

Q: Which results are given for `CCCc1cc2c(N3CCn4c(nnc4C(F)(F)F)C3)nc(N3CCN(C(=O)OCC)CC3)nc2s1` [Example 1-7, 4-[6-Propyl-4-(3-trifluoromethyl-5,6-dihydro-8H-[1,2,4]triazolo[4,3-a]pyrazin-7-yl)-thieno[2,3-d]pyrimidin-2-yl]-piperazine-1-carboxylic acid ethyl ester]?
A: Ki [1]: 770 nM; IC50 (Human P2Y12 receptor): 220 nM

Q: `CCCc1cc2c(N3CCn4c(nnc4C(F)(F)F)C3)nc(OCCNC(=O)COC)nc2s1` [Example 3-63, 2-Methoxy-N-{2-[6-propyl-4-(3-trifluoromethyl-5,6-dihydro-8H-[1,2,4]triazolo[4,3-a]pyrazin-7-yl)-thieno[2,3-d]pyrimidin-2-yloxy]-ethyl}-acetamide] was tested. Which Ki [1] did it give?
A: 7 nM

Q: What about the IC50 (Human P2Y12 receptor) of the same molecule?
A: 43 nM

Q: What does the source list for `CCCc1cc2c(N3CCn4c(nnc4C(F)(F)F)C3)nc(N3CC[C@H](C(=O)O)C3)nc2s1` [Example 1-57, (S)-1-[6-Propyl-4-(3-trifluoromethyl-5,6-dihydro-8H-[1,2,4]triazolo[4,3-a]pyrazin-7-yl)-thieno[2,3-d]pyrimidin-2-yl]-pyrrolidine-3-carboxylic acid]?
A: Ki [1]: 54 nM; IC50 (Human P2Y12 receptor): 15 nM
